Test results: PMC8584244 (International Journal of Molecular Sciences, 2021)
Values after ≈ are worked out from the molar mass of the structure shown. Like-named read-outs stand apart in the source and are kept apart here.

Assays:
[1] = test system: L. rhamnosus GG ATCC 53103; assay: MIC and MBC by broth microdilution in MRSB; format: cell-based, Lactobacillus rhamnosus; conditions: Lacticaseibacillus rhamnosus
L. reuteri DSM 17938 = assay: MIC and MBC by broth microdilution in MRSB; format: cell-based, Lactobacillus reuteri; conditions: Limosilactobacillus reuteri
[2] = test system: H. pylori ATCC43504 biofilm; assay: antibiofilm activity (alamarBlue, CFU count, crystal violet, Live/Dead fluorescence microscopy); format: cell-based, Helicobacter pylori; conditions: for CFU count of biofilm / inhibition of H. pylori biofilm development: sub-MIC (carvacrol, thymol 64 µg/mL; amoxicillin 0.016 µg/mL); for biofilm observed by fluorescence microscopy (Live/Dead): sub-MIC treated samples, 72 h of incubation
Experimental: The CA inhibitors and amoxicillin were diluted in liquid culture medium consisting of BB supplemented with 2% (v/v) of FBS and 0.3% (w/v) of glucose. […] The controls consisted of: […] The antibiofilm assay was performed in 96-well flat bottom microtiter plates (Eppendorf, Hamburg, Germany). The biofilm formation in the controls and treated samples was evaluated in 35 mm Petri dishes (Eppendorf, Hamburg, Germany) stained with Live/Dead staining and visualized by fluorescence microscope. Three independent experiments were performed in triplicate. The plates were incubated at 37 °C for 72 h under microaerophilic conditions. After 72 h of incubation, the minimum biofilm inhibitory concentration (MBIC) was determined through the alamarBlue assay, the CFU count, and the crystal violet (CV) assay (Sigma Aldrich, St. Louis, MO, USA). In detail, at the end of the incubation, the non-adherent cells, corresponding to the planktonic supernatant, were removed, and the biofilms were washed with 100 µL of DPBS (Sigma Aldrich, St. Louis, MO, USA). AlamarBlue was diluted to 10% in the selected culture medium, and 100 µL was added to each sample in the wells. The samples were incubated for 4 h at 37 °C in microaerophilic conditions, and subsequently the percentage of alamarBlue reduction was determined. The CFU count was carried out starting from the wells stained with alamarBlue. […] Serial dilutions of the stock were performed in DPBS, plated on the selected agar, and incubated at 37 °C under microaerophilic conditions for 3–5 days. The antibiofilm activity was also determined through crystal violet staining following the procedure indicated. Then, the absorbance at 590 nm was measured, and the percentage of biofilm biomass, normalized to the control, was determined. […] The biofilms developed in 35 mm Petri dishes were stained with Live/Dead™ BacLight™ Bacterial Viability Kit (Life Technologies Carlsbad, CA, USA) as previously reported and immediately visualized at the fluorescence microscope.

[3] = test system: L. acidophilus ATCC SD5214; assay: MIC and MBC by broth microdilution in MRSB; format: cell-based; conditions: Lactobacillus acidophilus
H. pylori [4] = assay: flow cytometry detection of cell viability (Live/Dead BacLight); conditions: sub-MIC treated samples, SYTO 9/propidium iodide
[5] = test system: H. pylori ATCC43504 planktonic and biofilm phenotypes; format: cell-based, Helicobacter pylori
H. pylori [6] = conditions: Helicobacter pylori
H. pylori ATCC43504 = assay: MIC and MBC by broth micro-dilution with alamarBlue; format: cell-based; conditions: Helicobacter pylori
Experimental: H. pylori colonies were collected and inoculated in Brucella Broth (BB; Oxoid Ltd., Hampshire, UK) added with 2% (v/v) of foetal bovine serum (FBS; Sigma Aldrich, Milan, Italy). […] Oxoid Ltd., Hampshire, UK). […] The MIC was determined by the broth micro-dilution method, following the guidelines of the Clinical and Laboratory Standards Institute. […] Carvacrol and thymol were resuspended in dimethyl sulfoxide (DMSO, Sigma-Aldrich, Milan, Italy) and were diluted in the liquid culture medium described above. […] The controls consisted of: (I) H. pylori broth culture; (II) BB plus 2% (v/v) of FBS, with the addition of the two CA inhibitors or amoxicillin at different concentrations; (III) just BB plus 2% (v/v) of FBS. Three independent experiments were performed in triplicate. The plates were then incubated at 37 °C for 72 h under microaerophilic conditions. […] AlamarBlue was added at 10% in each well, following the manufacturer instructions, and the plates were placed in an incubator for 4 h at 37 °C in microaerophilic conditions. After the incubation, the percentage of alamarBlue reduction of treated and untreated samples was determined, as previously described. The minimum bactericidal concentration (MBC) was determined by using the same wells stained with alamarBlue. Briefly, 100 μL of the bacterial suspensions, taken from the blue-violet wells, were seeded on the selected agar plates and incubated at 37 °C for 3–5 days in microaerophilic conditions.

AGS cells = test system: AGS cells; parameters: method as in PMID 33228095, PMID 33805064; conditions: read-out: IC50 against AGS cells; cited from earlier work
SmuCA = SmuCA (Streptococcus mutans, UniProt Q8DVY1); assay: stopped-flow CO2 hydrase assay, SmuCA; format: biochemical
Sequence of SmuCA (Q8DVY1 1-166): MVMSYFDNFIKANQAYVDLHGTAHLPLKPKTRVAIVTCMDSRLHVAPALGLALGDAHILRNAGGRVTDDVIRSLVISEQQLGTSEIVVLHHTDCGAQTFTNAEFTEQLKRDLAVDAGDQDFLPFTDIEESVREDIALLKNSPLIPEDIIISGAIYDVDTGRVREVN

PgiCAβ = PgiCAβ (Porphyromonas gingivalis, UniProt B2RL07); assay: stopped-flow CO2 hydrase assay, PgiCAβ; format: biochemical
Sequence of PgiCAβ (B2RL07 19-242): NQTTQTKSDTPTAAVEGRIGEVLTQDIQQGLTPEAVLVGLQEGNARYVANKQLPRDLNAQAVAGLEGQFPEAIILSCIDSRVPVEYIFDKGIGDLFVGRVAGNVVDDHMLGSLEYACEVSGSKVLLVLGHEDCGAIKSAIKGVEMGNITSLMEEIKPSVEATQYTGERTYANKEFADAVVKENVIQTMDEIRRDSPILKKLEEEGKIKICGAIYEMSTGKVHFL

HpCAβ [7] = biological target: T1, HpCAβ (Helicobacter pylori, UniProt O24855); assay: biochemical; conditions: mean from three assays, errors ±5–10%
T1 sequence (O24855 1-221): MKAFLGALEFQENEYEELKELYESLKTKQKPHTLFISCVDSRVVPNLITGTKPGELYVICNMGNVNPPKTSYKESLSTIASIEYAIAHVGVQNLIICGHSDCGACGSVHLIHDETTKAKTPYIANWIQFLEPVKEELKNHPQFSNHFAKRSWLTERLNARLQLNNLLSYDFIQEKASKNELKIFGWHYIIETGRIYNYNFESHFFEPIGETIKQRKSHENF

[8] = test system: several reference and clinical H. pylori strains; parameters: method as in PMID 33228095, PMID 33805064; conditions: cited from earlier work
MgCA = MgCA (Malassezia globosa, UniProt A8Q1N3); assay: stopped-flow CO2 hydrase assay, MgCA; format: biochemical
Sequence of MgCA (A8Q1N3 1-241): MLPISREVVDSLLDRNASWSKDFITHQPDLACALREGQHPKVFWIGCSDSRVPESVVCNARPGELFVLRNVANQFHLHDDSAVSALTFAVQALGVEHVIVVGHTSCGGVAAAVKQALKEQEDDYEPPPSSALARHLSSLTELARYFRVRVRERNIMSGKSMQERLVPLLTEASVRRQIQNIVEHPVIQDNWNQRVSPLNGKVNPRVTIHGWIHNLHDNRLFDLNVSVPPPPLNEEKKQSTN

(UniProt Q9ZK30) = assay: biochemical; parameters: species or system Helicobacter pylori; conditions: read-out: Ki HpCAα
Sequence of (UniProt Q9ZK30) (Q9ZK30 19-247 limits assumed): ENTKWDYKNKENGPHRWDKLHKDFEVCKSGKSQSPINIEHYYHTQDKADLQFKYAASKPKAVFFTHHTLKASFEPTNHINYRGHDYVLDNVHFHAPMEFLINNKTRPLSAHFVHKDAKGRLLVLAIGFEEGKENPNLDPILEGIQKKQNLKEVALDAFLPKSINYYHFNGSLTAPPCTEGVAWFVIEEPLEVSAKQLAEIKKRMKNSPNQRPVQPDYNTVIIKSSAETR

[9] = test system: H. pylori ATCC43504/NCTC11637; conditions: characterisation of reference strain ATCC43504/NCTC11637; no reference given; cited from earlier work
HpCAβ [10] = biological target: T1, HpCAβ; conditions: both HpCAs; cited from earlier work
hCA II = biological target: T2, hCA II (Homo sapiens, UniProt P00918); assay: stopped-flow CO2 hydrase assay, hCA II; format: biochemical
T2 construct: made in house; host or cells: Escherichia coli (DE3)

hCA VI = biological target: T3, hCA VI (Homo sapiens, UniProt P23280); assay: stopped-flow CO2 hydrase assay, hCA VI; format: biochemical
T3 construct: made in house; host or cells: Escherichia coli (DE3)
T3 sequence (P23280 18-308): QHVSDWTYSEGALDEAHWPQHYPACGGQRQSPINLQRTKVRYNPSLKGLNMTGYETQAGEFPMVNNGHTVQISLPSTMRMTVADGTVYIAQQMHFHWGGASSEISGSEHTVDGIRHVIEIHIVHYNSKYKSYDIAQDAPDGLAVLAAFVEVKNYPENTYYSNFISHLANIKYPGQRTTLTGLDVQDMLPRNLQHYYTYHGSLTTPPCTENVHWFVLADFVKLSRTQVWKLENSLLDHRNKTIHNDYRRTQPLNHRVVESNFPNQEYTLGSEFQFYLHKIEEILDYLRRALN

hCA I = biological target: T4, hCA I (Homo sapiens, UniProt P00915); assay: stopped-flow CO2 hydrase assay, hCA I; format: biochemical
T4 construct: made in house; host or cells: Escherichia coli (DE3)
T4 sequence (P00915 whole entry): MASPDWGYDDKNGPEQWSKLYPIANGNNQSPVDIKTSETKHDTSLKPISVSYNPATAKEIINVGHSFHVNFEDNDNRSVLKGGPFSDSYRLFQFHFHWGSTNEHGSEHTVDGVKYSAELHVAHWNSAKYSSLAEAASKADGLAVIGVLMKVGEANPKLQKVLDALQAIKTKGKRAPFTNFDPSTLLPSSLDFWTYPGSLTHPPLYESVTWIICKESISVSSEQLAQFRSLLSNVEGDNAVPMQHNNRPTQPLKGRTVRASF

[11] = ATCC53103, L. rhamnosus GG ATCC 53103, 24 h, anaerobic, read-out: MIC
[12] = ATCC53103, L. rhamnosus GG ATCC 53103, read-out: MBC
[13] = DSM17938, L. reuteri DSM 17938, 24 h, anaerobic, read-out: MIC
[14] = DSM17938, L. reuteri DSM 17938, read-out: MBC
[15] = ATCCSD5214, L. acidophilus ATCC SD5214, 24 h, anaerobic, read-out: MIC
[16] = ATCCSD5214, L. acidophilus ATCC SD5214, read-out: MBC
[17] = Planktonic T (treated with sub-MIC concentration)
[18] = biofilm phenotype, sub-MIC concentration
[19] = planktonic phenotype, sub-MIC concentration
[20] = H. pylori ATCC43504, 72 h, microaerophilic, read-out: MIC
[21] = H. pylori ATCC43504, read-out: MBC

| Compound | MIC [1, 11] | MBC [1, 12] | MIC (L. reuteri DSM 17938; [13]) | MBC (L. reuteri DSM 17938; [14]) | CFU count of biofilm ([2]; 72 h) | inhibition of H. pylori biofilm development ([2]; 72 h) | biofilm observed by fluorescence microscopy (Live/Dead) [2] | MIC [3, 15] | MBC [3, 16] | live cells (flow cytometry) (H. pylori [4]) | % OMV eDNA+/Total OMVs [5, 17] | pOMV eDNA+ count versus untreated [5, 19] | total pOMVs count versus untreated [5, 19] | viability (flow cytometry) (H. pylori [6]) | MIC (H. pylori ATCC43504; [20]) | MBC (H. pylori ATCC43504; [21]) | IC50 (AGS cells) | Ki (SmuCA) | Ki (PgiCAβ) | Ki (HpCAβ [7]) | also measured |
| --- | --- | --- | --- | --- | --- | --- | --- | --- | --- | --- | --- | --- | --- | --- | --- | --- | --- | --- | --- | --- | --- |
| CC1(C)S[C@@H]2[C@H](NC(=O)[C@H](N)c3ccc(O)cc3)C(=O)N2[C@H]1C(=O)O [amoxicillin, reference compound] | 1 µg/mL (≈ 2.74 µM) | 1 µg/mL (≈ 2.74 µM) | 16 µg/mL (≈ 43.8 µM) | 64 µg/mL (≈ 175 µM) | 1.92 × 10^7 CFUs | did not inhibit H. pylori biofilm formation | well-structured biofilm with some dead cells | 0.25 µg/mL (≈ 0.684 µM) | 0.25 µg/mL (≈ 0.684 µM) | 3.18 × 10^6 live cells/mL | 16.52% | decrease | decrease | around 64% | 0.032 µg/mL (≈ 0.0876 µM) | 0.032 µg/mL (≈ 0.0876 µM) |  |  |  |  | % OMV eDNA+/Total OMVs ([5]; Biofilm T (treated with sub-MIC concentration)): 36.09%; bOMV eDNA+ versus untreated [5, 18]: no differences; total bOMVs versus untreated [5, 18]: no differences |
| Cc1ccc(C(C)C)cc1O [carvacrol] |  |  |  |  | No CFUs were observed | ability to inhibit the development of the H. pylori mature biofilm | no biofilm formation |  |  | 3.80 × 10^4 live cells/mL | 32.53% |  |  |  |  |  | 300 ± 6.5 µM | 86.6 µM | 28 µM | 13.3 µM | MBC ([1]; ATCC53103): > 16000 µg/mL; MIC ([1]; ATCC53103, 24 h): > 16000 µg/mL; MBC (L. reuteri DSM 17938; DSM17938): > 8000 µg/mL; MIC (L. reuteri DSM 17938; DSM17938): 8000 µg/mL (≈ 53300 µM); MIC (L. reuteri DSM 17938; DSM17938, 24 h): 8000 µg/mL (≈ 53300 µM); MIC range [8]: 16 to 64 µg/mL; biofilm biomass percentage (crystal violet) versus untreated samples [2]: significantly lower; percentage of alamarBlue reduction in respect to the corresponding controls [2]: about 80%; MBC ([3]; ATCCSD5214): > 16000 µg/mL; MIC ([3]; ATCCSD5214, 24 h): > 16000 µg/mL; viability (flow cytometry) (H. pylori [4]): 35%; pOMV eDNA+ count versus untreated [5]: no differences were found; total pOMVs count versus untreated [5]: lower count; Ki (MgCA): 6.8 µM; Ki ((UniProt Q9ZK30)): 8.4 µM; MBC (H. pylori ATCC43504; ATCC43504): 256 µg/mL (≈ 1700 µM); MIC (H. pylori ATCC43504; ATCC43504, 72 h): 128 µg/mL (≈ 852 µM) |
| Cc1ncc([N+](=O)[O-])n1CCO [metronidazole] |  |  |  |  |  |  |  |  |  |  |  |  |  |  |  |  |  |  |  |  | MIC range [9]: 64 to 256 µg/mL |
| NC(N)=Nc1nc(CSCCC(N)=NS(N)(=O)=O)cs1 [famotidine] |  |  |  |  |  |  |  |  |  |  |  |  |  |  |  |  |  |  |  |  | inhibitory profile toward HpCAβ (HpCAβ [10]): nanomolar range |
| Cc1ccc(C(C)C)c(O)c1 [thymol] | > 16000 µg/mL | > 16000 µg/mL | 4000 µg/mL (≈ 26600 µM) | > 4000 µg/mL | No CFUs were observed | ability to inhibit the development of the H. pylori mature biofilm | no biofilm formation | > 16000 µg/mL | > 16000 µg/mL | 3.00 × 10^5 live cells/mL | 35.47% | significative difference | significative difference | around 32% | 128 µg/mL (≈ 852 µM) | 256 µg/mL (≈ 1700 µM) | 200 ± 6.5 µM | 84.9 µM | 48.9 µM | 3.4 µM | Ki (hCA II): > 100 µM; Ki (hCA VI): > 100 µM; MIC (L. reuteri DSM 17938; DSM17938, L. reuteri DSM 17938, text, read-out: MIC): 4000 µg/mL (≈ 26600 µM); MIC range [8]: 64 to 128 µg/mL; biofilm biomass percentage (crystal violet) versus untreated samples ([2]; sub-MIC 64 µg/mL, 72 h): significantly lower; percentage of alamarBlue reduction in respect to the corresponding controls ([2]; sub-MIC 64 µg/mL, biofilm, 72 h): ~85%; Ki (MgCA): > 100 µM; Ki (hCA I): > 100 µM |
